{"source": "paper PMC11843658", "about": "(Journal of Enzyme Inhibition and Medicinal Chemistry, 2025)", "origin": "cited, not measured here", "biological_target": "LSD1 (Homo sapiens, UniProt O60341)", "parameters": "purchased Cayman Chemical (Ann Arbor, MI)", "settings": "cited from earlier work"}
{"smiles": "CC/C(=C\\c1ccccc1)[C@@H]1C[C@H]1NC1CC2(C1)CN(CCO)C2", "note": "[Compound 5]", "values": [{"measurement": "mode of LSD1 inhibition", "value": "covalently inhibits LSD1"}]}
